Measured values published in patent US20120283207A1, “ANTIBACTERIAL AMINOGLYCOSIDE ANALOGS” (Achaogen, Inc., priority 2009, published 2012).
Converted amounts (≈) assume the structure as drawn.

Tests used:
P. aeruginosa ATCC 27853 = test: MIC assay, CLSI broth microdilution, APAE001; type: cell-based; conditions: Pseudomonas aeruginosa; APAE001 is ATCC27853; Mueller Hinton Broth, 35 C, 20 hours
Protocol: (§1) Minimum inhibitory concentrations (MIC) were determined by reference Clinical and Laboratory Standards Institute (CLSI) broth microdilution methods per M7-A7 [2006]. Quality control ranges utilizing E. coli ATCC 25922, P. aeruginosa ATCC 27853 and S. aureus ATCC 29213, and interpretive criteria for comparator agents were as published in CLSI M100-S17 [2007]. Briefly, serial two-fold dilutions of the test compounds were prepared at 2× concentration in Mueller Hinton Broth. The compound dilutions were mixed in 96-well assay plates in a 1:1 ratio with bacterial inoculum. The inoculum was prepared by suspension of a colony from an agar plate that was prepared the previous day. Bacteria were suspended in sterile saline and added to each assay plate to obtain a final concentration of 5×10^5 CFU/mL. The plates were incubated at 35 C for 20 hours in ambient air.

E. coli ATCC 25922 = test: MIC assay, CLSI broth microdilution, AECO001; type: cell-based; conditions: Escherichia coli; AECO001 is ATCC25922; Mueller Hinton Broth, 35 C, 20 hours
Protocol: as §1

MIC (P. aeruginosa ATCC 27853) [µg/mL] | MIC (E. coli ATCC 25922) [µg/mL] | Structure (SMILES)
≤ 1 | 1 to 16 (≈ 1.72 to 27.6 µM) | NCC1=CC[C@@H](N)[C@@H](O[C@H]2[C@H](O[C@@H]3O[C@H](CO)[C@@H](O[C@H]4OC(CN)[C@@H](O)[C@H](O)[C@H]4N)[C@H]3O)[C@@H](O)[C@H](N)C[C@@H]2N)O1 (stereo partly shown) [1/10, 4′,5′-dehydro-3′-deoxy-neomycin]
> 16 | > 16 | NCC1O[C@H](O[C@H]2[C@@H](O)[C@H](O[C@@H]3[C@@H](O)[C@H](N)C[C@H](N)[C@H]3O[C@H]3OC(CO)=CC[C@H]3N)O[C@@H]2CO)[C@H](N)[C@@H](O)[C@@H]1O (stereo partly shown) [2/3, 4′,5′-dehydro-3′-deoxy-paromomycin]
≤ 1 | 1 to 16 (≈ 1.64 to 26.2 µM) | CNCC1=C[C@H](O)[C@@H](N)[C@@H](O[C@H]2[C@H](O[C@@H]3O[C@H](CO)[C@@H](O[C@H]4OC(CN)[C@@H](O)[C@H](O)[C@H]4N)[C@H]3O)[C@@H](O)[C@H](N)C[C@@H]2N)O1 (stereo partly shown) [3/3, 6′-N-methyl-4′,5′-dehydro-neomycin]
1 to 16 (≈ 1.68 to 26.9 µM) | 1 to 16 (≈ 1.68 to 26.9 µM) | CNCC1=CC[C@@H](N)[C@@H](O[C@H]2[C@H](O[C@@H]3O[C@H](CO)[C@@H](O[C@H]4OC(CN)[C@@H](O)[C@H](O)[C@H]4N)[C@H]3O)[C@@H](O)[C@H](N)C[C@@H]2N)O1 (stereo partly shown) [4/3, 6′-N-methyl-4′,5′-dehydro-3′-deoxy-neomycin]
≤ 1 | ≤ 1 | NCC[C@H](O)C(=O)N[C@@H]1C[C@H](N)[C@@H](O[C@H]2OC(CN)=CC[C@H]2N)[C@H](O[C@@H]2O[C@H](CO)[C@@H](O[C@H]3O[C@@H](CN)[C@@H](O)[C@H](O)[C@H]3N)[C@H]2O)[C@H]1O [5/6, 1-(2(S)-hydroxy-4-amino-butyryl)-4′,5′-dehydro-3′-deoxy-neomycin]
